By IC50 is commonly meant the midpoint of a concentration-inhibition curve.

IC50 data for two compounds are collected here from PMC6152376, “Synthesis and Evaluation of Novel Benzofuran Derivatives as Selective SIRT2 Inhibitors” (Molecules : A Journal of Synthetic Chemistry and Natural …, 2017).

The structures appear in SMILES notation.

Assay [1] deals with SIRT1. Further details: method as in PMID 26961318, PMID 24992072, PMID 26025875, PMID 24387981. As to conditions: known sirtuin inhibitors, Figure 1; ref [16],[17],[18],[19]; cited from earlier work.
The test system of assay [2] is SIRT2. Also noted: method as in PMID 26961318, PMID 24992072, PMID 26025875, PMID 24387981. Particulars: known sirtuin inhibitors, Figure 1; ref [16],[17],[18],[19]; cited from earlier work.
Assay [3] deals with T1, human recombinant SIRT3 (Homo sapiens, UniProt Q9NTG7).
T1 sequence (Q9NTG7 118-399): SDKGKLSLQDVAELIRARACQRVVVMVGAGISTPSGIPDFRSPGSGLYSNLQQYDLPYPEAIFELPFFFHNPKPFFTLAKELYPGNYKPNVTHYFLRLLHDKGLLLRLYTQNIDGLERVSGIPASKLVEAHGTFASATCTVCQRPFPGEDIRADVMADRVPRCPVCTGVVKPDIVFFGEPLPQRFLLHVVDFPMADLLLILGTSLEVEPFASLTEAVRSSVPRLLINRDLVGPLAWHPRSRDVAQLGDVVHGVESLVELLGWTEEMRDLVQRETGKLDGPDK
The assay can be described thus: SIRT3 enzymatic deacetylation assay with AMC-tagged peptide substrate (fluorescence).

Regarding `Cn1cc(C2=C(c3cn(CCCSC(=N)N)c4ccccc34)C(=O)NC2=O)c2ccccc21` [Ro31-8220], the IC50 was […] in assay [1] and […] in assay [2].
Consider `CN(C)CCCCC(=O)Nc1ccc(NC(=S)NC(=O)c2ccc(C(C)(C)C)cc2)cc1` [Tenovin6], for which the values for the IC50 in assay [1], in assay [2] and in assay [3] were […], […] and 89.3 µM, respectively.
